{
  "source": "patent US12077503B2",
  "about": "“Substituted cyclic amides and their use as herbicides” (FMC CORPORATION, priority 2015, dated 2024)",
  "experiment_in_all_cases": "Test C preemergence",
  "format_in_all_cases": "in vivo",
  "key": {"[1]": {"tested_on": "wheat (winter wheat, Triticum aestivum)", "conditions": "for Plant response rating (scale of 0 to 100), Wheat: 0 is no effect, 100 is complete control", "in_short": "(§1)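 Assessment: visual, 13–15 d after treatment, 0 (no effect) to 100 (complete control) relative to controls. Treatment: preemergence to seeds in loam-sand soil, or postemergence to 1- to 4-leaf plants in peat-based medium. Formulation: non-phytotoxic solvent mixture with surfactant.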"}, "[2]": {"tested_on": "morningglory (Ipomoea coccinea)", "conditions": "for Plant response rating (scale of 0 to 100), Morningglory: 0 is no effect, 100 is complete control", "in_short": "as §1"}, "[3]": {"tested_on": "barnyardgrass (Echinochloa crus-galli)", "conditions": "for Plant response rating (scale of 0 to 100), Barnyardgrass: 0 is no effect, 100 is complete control", "in_short": "as §1"}, "[4]": {"tested_on": "ragweed (common ragweed, Ambrosia elatior)", "conditions": "for Plant response rating (scale of 0 to 100), Ragweed: 0 is no effect, 100 is complete control", "in_short": "as §1"}, "[5]": {"tested_on": "blackgrass (Alopecurus myosuroides)", "conditions": "for Plant response rating (scale of 0 to 100), Blackgrass: 0 is no effect, 100 is complete control", "in_short": "as §1"}, "[6]": {"tested_on": "pigweed (Amaranthus retroflexus)", "conditions": "for Plant response rating (scale of 0 to 100), Pigweed: 0 is no effect, 100 is complete control", "in_short": "as §1"}, "[7]": {"tested_on": "waterhemp (common waterhemp, Amaranthus rudis)", "conditions": "for Plant response rating (scale of 0 to 100), Waterhemp: 0 is no effect, 100 is complete control", "in_short": "as §1"}, "[8]": {"tested_on": "nutsedge, yellow (yellow nutsedge, Cyperus esculentus)", "conditions": "for Plant response rating (scale of 0 to 100), Nutsedge, Yellow: 0 is no effect, 100 is complete control", "in_short": "as §1"}, "[9]": {"tested_on": "oilseed rape (Brassica napus)", "conditions": "for Plant response rating (scale of 0 to 100), Oilseed Rape: 0 is no effect, 100 is complete control", "in_short": "as §1"}, "[10]": {"tested_on": "velvetleaf (Abutilon theophrasti)", "conditions": "for Plant response rating (scale of 0 to 100), Velvetleaf: 0 is no effect, 100 is complete control", "in_short": "as §1"}, "[11]": {"tested_on": "Galium (catchweed bedstraw, Galium aparine)", "conditions": "for Plant response rating (scale of 0 to 100), Galium: 0 is no effect, 100 is complete control", "in_short": "as §1"}, "[12]": {"tested_on": "ryegrass, Italian (Italian ryegrass, Lolium multiflorum)", "conditions": "for Plant response rating (scale of 0 to 100), Ryegrass, Italian: 0 is no effect, 100 is complete control", "in_short": "as §1"}, "corn (Zea mays)": {"tested_on": "corn (Zea mays)", "conditions": "for Plant response rating (scale of 0 to 100), Corn: 0 is no effect, 100 is complete control", "in_short": "as §1"}, "soybean (Glycine max)": {"tested_on": "soybean (Glycine max)", "conditions": "for Plant response rating (scale of 0 to 100), Soybean: 0 is no effect, 100 is complete control", "in_short": "as §1"}, "[13]": {"tested_on": "crabgrass, large (large crabgrass, Digitaria sanguinalis)", "conditions": "for Plant response rating (scale of 0 to 100), Crabgrass, Large: 0 is no effect, 100 is complete control", "in_short": "as §1"}, "[14]": {"tested_on": "foxtail, giant (giant foxtail, Setaria faberii)", "conditions": "for Plant response rating (scale of 0 to 100), Foxtail, Giant: 0 is no effect, 100 is complete control", "in_short": "as §1"}, "[15]": {"conditions": "62 g ai/ha, scale 0 to 100, 0 no effect, 100 complete control"}},
  "data": [
    {"smiles": "CN1CC(c2ccc(C(C)(F)F)cc2)C(C(=O)Nc2cccc(F)c2F)C1=O", "note": "(stereo not shown) [Compound 690]", "values": [
      {"measurement": "Plant response rating (scale of 0 to 100), Wheat", "setting": "[1]; 8 g ai/ha", "value": 0},
      {"measurement": "Plant response rating (scale of 0 to 100), Wheat", "setting": "[1]; 16 g ai/ha", "value": 5},
      {"measurement": "Plant response rating (scale of 0 to 100), Wheat", "setting": "[1]; 31 g ai/ha", "value": 40},
      {"measurement": "Plant response rating, Wheat", "setting": "[1]; [15]", "value": 45},
      {"measurement": "Plant response rating (scale of 0 to 100), Morningglory", "setting": "[2]; 8 g ai/ha", "value": 0},
      {"measurement": "Plant response rating (scale of 0 to 100), Morningglory", "setting": "[2]; 16 g ai/ha", "value": 0},
      {"measurement": "Plant response rating (scale of 0 to 100), Morningglory", "setting": "[2]; 31 g ai/ha", "value": 0},
      {"measurement": "Plant response rating, Morningglory", "setting": "[2]; [15]", "value": 0},
      {"measurement": "Plant response rating (scale of 0 to 100), Barnyardgrass", "setting": "[3]; 8 g ai/ha", "value": 85},
      {"measurement": "Plant response rating (scale of 0 to 100), Barnyardgrass", "setting": "[3]; 16 g ai/ha", "value": 95},
      {"measurement": "Plant response rating (scale of 0 to 100), Barnyardgrass", "setting": "[3]; 31 g ai/ha", "value": 95},
      {"measurement": "Plant response rating, Barnyardgrass", "setting": "[3]; [15]", "value": 98},
      {"measurement": "Plant response rating (scale of 0 to 100), Ragweed", "setting": "[4]; 8 g ai/ha", "value": 0},
      {"measurement": "Plant response rating (scale of 0 to 100), Ragweed", "setting": "[4]; 16 g ai/ha", "value": 10},
      {"measurement": "Plant response rating (scale of 0 to 100), Ragweed", "setting": "[4]; 31 g ai/ha", "value": 25},
      {"measurement": "Plant response rating, Ragweed", "setting": "[4]; [15]", "value": 80},
      {"measurement": "Plant response rating (scale of 0 to 100), Blackgrass", "setting": "[5]; 8 g ai/ha", "value": 0},
      {"measurement": "Plant response rating (scale of 0 to 100), Blackgrass", "setting": "[5]; 16 g ai/ha", "value": 0},
      {"measurement": "Plant response rating (scale of 0 to 100), Blackgrass", "setting": "[5]; 31 g ai/ha", "value": 50},
      {"measurement": "Plant response rating, Blackgrass", "setting": "[5]; [15]", "value": 55},
      {"measurement": "Plant response rating (scale of 0 to 100), Pigweed", "setting": "[6]; 8 g ai/ha", "value": 50},
      {"measurement": "Plant response rating (scale of 0 to 100), Pigweed", "setting": "[6]; 16 g ai/ha", "value": 60},
      {"measurement": "Plant response rating (scale of 0 to 100), Pigweed", "setting": "[6]; 31 g ai/ha", "value": 75},
      {"measurement": "Plant response rating, Pigweed", "setting": "[6]; [15]", "value": 90},
      {"measurement": "Plant response rating (scale of 0 to 100), Waterhemp", "setting": "[7]; 8 g ai/ha", "value": 65},
      {"measurement": "Plant response rating (scale of 0 to 100), Waterhemp", "setting": "[7]; 16 g ai/ha", "value": 80},
      {"measurement": "Plant response rating (scale of 0 to 100), Waterhemp", "setting": "[7]; 31 g ai/ha", "value": 90},
      {"measurement": "Plant response rating, Waterhemp", "setting": "[7]; [15]", "value": 95},
      {"measurement": "Plant response rating (scale of 0 to 100), Nutsedge, Yellow", "setting": "[8]; 8 g ai/ha", "value": 0},
      {"measurement": "Plant response rating (scale of 0 to 100), Nutsedge, Yellow", "setting": "[8]; 16 g ai/ha", "value": 0},
      {"measurement": "Plant response rating (scale of 0 to 100), Nutsedge, Yellow", "setting": "[8]; 31 g ai/ha", "value": 0},
      {"measurement": "Plant response rating, Nutsedge, Yellow", "setting": "[8]; [15]", "value": 50},
      {"measurement": "Plant response rating (scale of 0 to 100), Oilseed Rape", "setting": "[9]; 8 g ai/ha", "value": 0},
      {"measurement": "Plant response rating (scale of 0 to 100), Oilseed Rape", "setting": "[9]; 16 g ai/ha", "value": 50},
      {"measurement": "Plant response rating (scale of 0 to 100), Oilseed Rape", "setting": "[9]; 31 g ai/ha", "value": 75},
      {"measurement": "Plant response rating, Oilseed Rape", "setting": "[9]; [15]", "value": 80},
      {"measurement": "Plant response rating (scale of 0 to 100), Velvetleaf", "setting": "[10]; 8 g ai/ha", "value": 0},
      {"measurement": "Plant response rating (scale of 0 to 100), Velvetleaf", "setting": "[10]; 16 g ai/ha", "value": 0},
      {"measurement": "Plant response rating (scale of 0 to 100), Velvetleaf", "setting": "[10]; 31 g ai/ha", "value": 20},
      {"measurement": "Plant response rating, Velvetleaf", "setting": "[10]; [15]", "value": 50},
      {"measurement": "Plant response rating (scale of 0 to 100), Galium", "setting": "[11]; 8 g ai/ha", "value": 100},
      {"measurement": "Plant response rating (scale of 0 to 100), Galium", "setting": "[11]; 16 g ai/ha", "value": 90},
      {"measurement": "Plant response rating (scale of 0 to 100), Galium", "setting": "[11]; 31 g ai/ha", "value": 95},
      {"measurement": "Plant response rating, Galium", "setting": "[11]; [15]", "value": 98},
      {"measurement": "Plant response rating (scale of 0 to 100), Ryegrass, Italian", "setting": "[12]; 8 g ai/ha", "value": 0},
      {"measurement": "Plant response rating (scale of 0 to 100), Ryegrass, Italian", "setting": "[12]; 16 g ai/ha", "value": 10},
      {"measurement": "Plant response rating (scale of 0 to 100), Ryegrass, Italian", "setting": "[12]; 31 g ai/ha", "value": 40},
      {"measurement": "Plant response rating, Ryegrass, Italian", "setting": "[12]; [15]", "value": 45},
      {"measurement": "Plant response rating (scale of 0 to 100), Corn", "setting": "corn (Zea mays); 8 g ai/ha", "value": 20},
      {"measurement": "Plant response rating (scale of 0 to 100), Corn", "setting": "corn (Zea mays); 16 g ai/ha", "value": 10},
      {"measurement": "Plant response rating (scale of 0 to 100), Corn", "setting": "corn (Zea mays); 31 g ai/ha", "value": 20},
      {"measurement": "Plant response rating, Corn", "setting": "corn (Zea mays); [15]", "value": 70},
      {"measurement": "Plant response rating (scale of 0 to 100), Soybean", "setting": "soybean (Glycine max); 8 g ai/ha", "value": 0},
      {"measurement": "Plant response rating (scale of 0 to 100), Soybean", "setting": "soybean (Glycine max); 16 g ai/ha", "value": 0},
      {"measurement": "Plant response rating (scale of 0 to 100), Soybean", "setting": "soybean (Glycine max); 31 g ai/ha", "value": 0},
      {"measurement": "Plant response rating, Soybean", "setting": "soybean (Glycine max); [15]", "value": 0},
      {"measurement": "Plant response rating (scale of 0 to 100), Crabgrass, Large", "setting": "[13]; 8 g ai/ha", "value": 95},
      {"measurement": "Plant response rating (scale of 0 to 100), Crabgrass, Large", "setting": "[13]; 16 g ai/ha", "value": 98},
      {"measurement": "Plant response rating (scale of 0 to 100), Crabgrass, Large", "setting": "[13]; 31 g ai/ha", "value": 98},
      {"measurement": "Plant response rating, Crabgrass, Large", "setting": "[13]; [15]", "value": 100},
      {"measurement": "Plant response rating (scale of 0 to 100), Foxtail, Giant", "setting": "[14]; 8 g ai/ha", "value": 90},
      {"measurement": "Plant response rating (scale of 0 to 100), Foxtail, Giant", "setting": "[14]; 16 g ai/ha", "value": 95},
      {"measurement": "Plant response rating (scale of 0 to 100), Foxtail, Giant", "setting": "[14]; 31 g ai/ha", "value": 95},
      {"measurement": "Plant response rating, Foxtail, Giant", "setting": "[14]; [15]", "value": 98}
    ]}
  ]
}
